From patent US8350010B2, “Anti-alpha5/beta1 antibody” (Genentech, Inc., priority 2006, dated 2013)

System: HCT116 tumor cells (colon tumor cells)
Assay: HCT116 colon tumor model, anti-alpha5beta1 + chemotherapy
Format: in vivo, HRLN female nu/nu mice
Details: chemotherapeutic agent by itself
Description: HRLN female nu/nu mice were injected with 5×10^6 HCT116 tumor cells (colon tumor cells) subcutaneously in their flanks. Tumors were allowed to grow until they reach an average size of 80-120 cubic mm before treatment with therapies. Tumor bearing mice were then divided into 4 groups:
Tumor volume measurement was carried out twice a week using a standard caliper measurement method. The hamster anti-mouse integrin alpha5 mab, known as 10E7, was generated at Genentech. Body weight was measured 5 times over 2 days then twice per week (biwk) to the end of the study. The endpoint of the experiment was a tumor volume of 1.5 gms or 60 days, whichever came first. Some responders were followed longer. When the endpoint was reached, the animals were euthanized. The dosing volume was 10 mL/kg (0.200 ml/20 g mouse), which volume was adjusted for body weight. 10E7 was administered 30 minutes before irinotecan administration. For animals showing complete regression (CR), tissues at the site of tumor implantation were collected at endpoint and preserved in formulin followed by 70% EtOH for later study. All samples to be frozen were placed in a cryomold, wrapped in foil & snap frozen on liquid nitrogen.

Compound: CCc1c2c(nc3ccc(OC(=O)N4CCC(N5CCCCC5)CC4)cc13)-c1cc3c(c(=O)n1C2)COC(=O)[C@]3(O)CC [irinotecan]
- vascular damage: did not cause significant vascular damage
